In PMC6692898 (Chemical research in toxicology, 2019):
Like-named read-outs stand apart in the source and are kept apart here. One block for each molecule: values may come before it.

Assays:
[1] = 1-Naphthaldehyde decay/depletion in human liver microsomes and Supersomes; type: in vitro ADME
[2] = Time-course decay of TBF-A in HLM, control Supersomes and isozyme Supersomes; type: in vitro ADME, human
CYP2C19 = CYP2C19 (Homo sapiens, UniProt P33261); assay: Steady-state kinetics by recombinant CYP2C19 Supersomes; type: in vitro ADME
[3] = cited from earlier work
[4] = substrate: CN(C/C=C/C#CC(C)(C)C)Cc1cccc2ccccc12; assay: cells, lysate or membranes named; conditions: CYP2C19, pH 7.4
[5] = 50 μM TBF-A, normalized per mg/protein
[6] = step 2.2a, metabolite 1-naphthyl-methylamine, CYP2C19
[7] = step 2.2b, metabolite 1-naphthaldehyde, CYP2C19

Molecule: O=Cc1cccc2ccccc12 [1-naphthaldehyde]
effect of microsomes and NADPH on decay or disappearance ([1]; 50 μM 1-naphthaldehyde, active or heat-inactivated human liver microsomes, presence or absence of NADPH): not significantly affected
depletion in Supersomes compared with human liver microsomes ([1]; 10 and 50 μM 1-naphthaldehyde, NADPH, CYP2C19 and 3A4 Supersomes, after 30 min): more significant decrease

end-point plateau for CYP3A4 higher than that of HLM ([2]; 50 μM TBF-A decay): ~4 fold
end-point plateau of CYP2C19 higher than for both HLM and control Supersomes ([2]; 50 μM TBF-A decay): roughly 2 fold
decay faster in HLM compared to CYP2C19 Supersomes [2, 5]: 13%
decay faster in HLM compared to CYP3A4 Supersomes [2, 5]: 55%
Molecule: CC(C)(C)C#CC=CC=O [TBF-A, 6,6-dimethyl-2-hepten-4-ynal]

Molecule: CC(C)(C)C#C/C=C/CNCc1cccc2ccccc12 [desmethyl-terbinafine]
Km higher than the value for terbinafine N-denaphthylation (Pathway 3) (CYP2C19; CYP2C19): about 5 fold
decrease in N-denaphthylation catalytic efficiency from terbinafine to desmethyl-terbinafine (CYP2C19; CYP2C19): ~15 fold
higher rate of turnover (Vmax) than for the parent drug (CYP2C19; N-denaphthylation by CYP2C19): about 3 fold
efficiency of 1-naphthyl methylamine formation by CYP2C19 relative to 3A4 (CYP2C19; Pathway 2.2a): about 3 fold
higher Vmax for CYP2C19 (CYP2C19; formation of the desmethyl-terbinafine dihydrodiols, loss of the methyl group): approximately 10 fold
Km (CYP2C19; read-out: Km (affinity), CYP2C19, oxidative nondealkylation reactions): < 100 µM
Km (CYP2C19; [6]): 220 ± 55 µM
V/K (CYP2C19; [6]): 3.7
Vmax (CYP2C19; [6]): 810 ± 92 pmol/min/nmol of protein
Km (CYP2C19; [7]): 150 ± 58 µM
V/K (CYP2C19; [7]): 8.7
Vmax (CYP2C19; [7]): 1300 ± 59 pmol/min/nmol of protein

Km at 30 min (CYP2C19; human, recombinant CYP2C19 Supersomes, pH 7.4, Km (affinity), CYP2C19, oxidative nondealkylation reactions): < 100 µM
Molecule: CN(C/C=C/C#CC(C)(C)C)Cc1cccc2ccccc12 [terbinafine]
time remaining at therapeutic levels in the body after therapy ceases ([3]; due to bioaccumulation): up to a month
plasma levels ([3]; reported): 1000 ng/mL
protein binding ([3]; reported): > 99%

B1: CYP2C19 (Homo sapiens) (protein)
chain: MDPFVVLVLCLSCLLLLSIWRQSSGRGKLPPGPTPLPVIGNILQIDIKDVSKSLTNLSKIYGPVFTLYFGLERMVVLHGYEVVKEALIDLGEEFSGRGHFPLAERANRGFGIVFSNGKRWKEIRRFSLMTLRNFGMGKRSIEDRVQEEARCLVEELRKTKASPCDPTFILGCAPCNVICSIIFQKRFDYKDQQFLNLMEKLNENIRIVSTPWIQICNNFPTIIDYFPGTHNKLLKNLAFMESDILEKVKEHQESMDINNPRDFIDCFLIKMEKEKQNQQSEFTIENLVITAADLLGAGTETTSTTLRYALLLLLKHPEVTAKVQEEIERVIGRNRSPCMQDRGHMPYTDAVVHEVQRYIDLIPTSLPHAVTCDVKFRNYLIPKGTTILTSLTSVLHDNKEFPNPEMFDPRHFLDEGGNFKKSNYFMPFSAGKRICVGEGLARMELFLFLTFILQNFNLKSLIDPKDLDTTPVVNGFASVPPFYQLCFIPV
Km ([4]; other: step 1.1, metabolite N-methyl-1-naphthyl-methylamine): 120 ± 22 µM
Km ([4]; other: step 2.1, metabolite desmethyl-terbinafine): 37 ± 6.7 µM
Km ([4]; other: step 3.1, metabolite 1-naphthaldehyde): 3.0 ± 0.83 µM
